Experimental data as given in the supplement of paper PMC12350171.

Columns and labels:
Bacteroides fragilis NT = assay: IC25 growth inhibition; higher = less potent
How it was run: (§1)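 Under anaerobic conditions, OD578 was read hourly in a plate reader for at least three biological replicates of monocultures grown overnight in mGAM. Each culture started at an OD578 of 0.01 in pre-reduced plates holding twofold drug dilutions and 1% DMSO (or water). IC25 was reported as a tested interval: the lowest concentration where the monotonic median area under the growth curve dropped below the cutoff. That cutoff was 0.75.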

[1] = test system: Bacteroides thetaiotaomicron; assay: IC25 growth inhibition; higher = less potent
How it was run: as §1

Bacteroides uniformis = assay: IC25 growth inhibition; higher = less potent
How it was run: as §1

Bacteroides vulgatus = assay: IC25 growth inhibition; higher = less potent
How it was run: as §1

Clostridium bolteae = assay: IC25 growth inhibition; higher = less potent
How it was run: as §1

Clostridium perfringens = assay: IC25 growth inhibition; higher = less potent
How it was run: as §1

Clostridium ramosum = assay: IC25 growth inhibition; higher = less potent
How it was run: as §1

[2] = test system: Clostridium saccharolyticum; assay: IC25 growth inhibition; higher = less potent
How it was run: as §1

Collinsella aerofaciens = assay: IC25 growth inhibition; higher = less potent
How it was run: as §1

Coprococcus comes = assay: IC25 growth inhibition; higher = less potent
How it was run: as §1

Dorea formicigenerans = assay: IC25 growth inhibition; higher = less potent
How it was run: as §1

Escherichia coli ED1a = assay: IC25 growth inhibition; higher = less potent
How it was run: as §1

Eubacterium rectale = assay: IC25 growth inhibition; higher = less potent
How it was run: as §1

[3] = test system: Fusobacterium nucleatum subsp. Nucleatum; assay: IC25 growth inhibition; higher = less potent
How it was run: as §1

Parabacteroides merdae = assay: IC25 growth inhibition; higher = less potent
How it was run: as §1

Roseburia intestinalis = assay: IC25 growth inhibition; higher = less potent
How it was run: as §1

Ruminococcus gnavus = assay: IC25 growth inhibition; higher = less potent
How it was run: as §1

[4] = test system: Salmonella enterica typhimurium; assay: IC25 growth inhibition; higher = less potent
How it was run: as §1

Shigella flexneri = assay: IC25 growth inhibition; higher = less potent
How it was run: as §1

[5] = test system: Streptococcus parasanguinis; assay: IC25 growth inhibition; higher = less potent
How it was run: as §1

Streptococcus salivarius = assay: IC25 growth inhibition; higher = less potent
How it was run: as §1

Vibrio cholerae = assay: IC25 growth inhibition; higher = less potent
How it was run: as §1

[6] = test system: Yersinia enterocolitica WA-314; assay: IC25 growth inhibition; higher = less potent
How it was run: as §1

[7] = test system: Yersinia pseudotuberculosis; assay: IC25 growth inhibition; higher = less potent
How it was run: as §1

[8] = test system: Com21 synthetic gut community; assay: community biomass OD578 after 24 h drug treatment relative to untreated (fraction of untreated control); higher = more community growth; details: community: Com21 (Com20 + E. coli ED1a)
Experimental: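 Com21 (Com20 plus E. coli ED1a) was treated with drug for 24 h under anaerobic conditions in mGAM. Community OD578 was then measured and normalised to untreated Com21; mean of 3 biological replicates.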

[9] = drug pretreatment concentration 2.5 µM
[10] = drug pretreatment concentration 5 µM
[11] = drug pretreatment concentration 10 µM
[12] = drug pretreatment concentration 20 µM
[13] = drug pretreatment concentration 40 µM
[14] = drug pretreatment concentration 80 µM
[15] = drug pretreatment concentration 160 µM
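For IC25 growth inhibition in this document: lowest concentration where monotonic median growth AUC falls below 0.75 of drug-free control.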

SMILES	IC25 growth inhibition (Bacteroides fragilis NT) [µM]	IC25 growth inhibition [1] [µM]	IC25 growth inhibition (Bacteroides uniformis) [µM]	IC25 growth inhibition (Bacteroides vulgatus) [µM]	IC25 growth inhibition (Clostridium bolteae) [µM]	IC25 growth inhibition (Clostridium perfringens) [µM]	IC25 growth inhibition (Clostridium ramosum) [µM]	IC25 growth inhibition [2] [µM]	IC25 growth inhibition (Collinsella aerofaciens) [µM]	IC25 growth inhibition (Coprococcus comes) [µM]	IC25 growth inhibition (Dorea formicigenerans) [µM]	IC25 growth inhibition (Escherichia coli ED1a) [µM]	IC25 growth inhibition (Eubacterium rectale) [µM]	IC25 growth inhibition [3] [µM]	IC25 growth inhibition (Parabacteroides merdae) [µM]	IC25 growth inhibition (Roseburia intestinalis) [µM]	IC25 growth inhibition (Ruminococcus gnavus) [µM]	IC25 growth inhibition [4] [µM]	IC25 growth inhibition (Shigella flexneri) [µM]	IC25 growth inhibition [5] [µM]	IC25 growth inhibition (Streptococcus salivarius) [µM]	IC25 growth inhibition (Vibrio cholerae) [µM]	IC25 growth inhibition [6] [µM]	IC25 growth inhibition [7] [µM]	community biomass OD578 [8, 9]	community biomass OD578 [8, 10]	community biomass OD578 [8, 11]	community biomass OD578 [8, 12]	community biomass OD578 [8, 13]	community biomass OD578 [8, 14]	community biomass OD578 [8, 15]
CCOC(=O)C1=C(C)NC(C)=C(C(=O)OCC)C1c1ccccc1/C=C/C(=O)OC(C)(C)C [Lacidipine]	> 40	> 20	> 40	> 40	> 20	≤ 40	> 40	> 20	> 20	> 20	> 40	> 40	> 40	> 40	> 40	≤ 20	> 40	> 20	> 40	> 20	> 40	> 40	> 20	> 20	1.01	1.01	1.04	1	0.963	–	–
Cc1c(OCC(F)(F)F)ccnc1C[S+]([O-])c1nc2ccccc2[nH]1 (stereo unspecified) [Lansoprazole]	> 160	> 160	≤ 160	> 160	> 160	> 160	> 160	> 160	≤ 160	> 160	≤ 160	> 160	> 80	> 160	> 160	> 160	> 160	> 160	> 160	> 160	> 160	> 160	> 160	> 160	–	–	0.935	0.962	0.952	0.945	0.926
CCOC(=O)N1CCC(=C2c3ccc(Cl)cc3CCc3cccnc32)CC1 [Loratadine]	> 160	> 160	> 160	> 160	> 160	> 160	≤ 80	> 160	> 160	> 40	> 160	> 40	> 160	> 160	≤ 40	> 160	> 80	> 40	> 160	> 160	> 160	> 160	> 80	> 40	1	1.01	1.02	1.01	0.941	–	–
CN1CCN(C2=Nc3ccccc3Oc3ccc(Cl)cc32)CC1 [Loxapine]	≤ 80	≤ 40	≤ 160	≤ 10	> 160	≤ 160	> 160	> 160	> 160	> 40	≤ 160	> 160	≤ 40	≤ 160	≤ 10	≤ 160	≤ 160	> 160	> 160	> 160	≤ 160	≤ 80	> 160	> 160	–	–	0.993	0.996	0.991	0.987	0.951
